# In patent publication US20040121947A1, “Compounds which inhibit beta-secretase activity and methods of use thereof” (Oklahoma Medical Research Foundation, priority 2000, published 2004):
# Like-named read-outs stand apart in the source and are kept apart here.
# What was measured:
# memapsin 2 = target: T1, memapsin 2 (Homo sapiens, UniProt P56817); assay: Inhibition of memapsin 2 proteolytic activity, fluorogenic substrate FS-2; assay type: biochemical; conditions: for % Inhibition Mep2: enzyme concentration equals the compound concentration; for % Inh (M1/M2): ratio of % inhibition memapsin 1 / memapsin 2, 1 or less = greater inhibition of memapsin 2; for Vi/Vo: ratio of initial cleavage velocities of FS-2 with/without compound, enzyme and inhibitor concentrations equal (e.g., about 80 nM, 100 nM)
# T1 construct: pET-11 vector-derived residues 1-15 of promemapsin 2-T1 (N, cleaved yes); made in house; host or cells: E. coli
# T1 sequence (P56817 41-454 limits assumed): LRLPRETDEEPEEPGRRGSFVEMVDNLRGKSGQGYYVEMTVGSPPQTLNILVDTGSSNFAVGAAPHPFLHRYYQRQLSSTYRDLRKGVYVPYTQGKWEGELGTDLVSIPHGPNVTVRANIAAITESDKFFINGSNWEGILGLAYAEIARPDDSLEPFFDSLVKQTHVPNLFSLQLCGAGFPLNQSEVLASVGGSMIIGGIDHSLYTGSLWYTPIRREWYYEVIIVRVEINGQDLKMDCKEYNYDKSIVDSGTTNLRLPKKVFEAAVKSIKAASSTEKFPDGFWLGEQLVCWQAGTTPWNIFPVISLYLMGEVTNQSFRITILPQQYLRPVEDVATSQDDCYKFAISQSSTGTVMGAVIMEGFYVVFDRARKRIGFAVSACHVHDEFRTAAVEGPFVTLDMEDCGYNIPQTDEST
# Method in brief: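 Spontaneously activated memapsin 2 (80 nM final) equilibrated with inhibitor (about 10 nM–10 μM) in 0.1 M NaOAc pH 4.0 with 10% DMSO for 20 min at 37 °C, with fluorogenic substrate FS-2. Ki converted from Ki apparent using substrate concentration and Km.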
# memapsin 1 = target: T2, memapsin 1 (Homo sapiens, UniProt Q9Y5Z0); assay: Inhibition of memapsin 1 proteolytic activity, fluorogenic substrate FS-2; assay type: biochemical; conditions: for % Inhibition Mep1: enzyme concentration equals the compound concentration
# T2 construct: pET-11 vector-derived residues 1-14 of promemapsin 1-T1 (N, cleaved yes); made in house; host or cells: E. coli
# T2 sequence (Q9Y5Z0 63-466 limits assumed): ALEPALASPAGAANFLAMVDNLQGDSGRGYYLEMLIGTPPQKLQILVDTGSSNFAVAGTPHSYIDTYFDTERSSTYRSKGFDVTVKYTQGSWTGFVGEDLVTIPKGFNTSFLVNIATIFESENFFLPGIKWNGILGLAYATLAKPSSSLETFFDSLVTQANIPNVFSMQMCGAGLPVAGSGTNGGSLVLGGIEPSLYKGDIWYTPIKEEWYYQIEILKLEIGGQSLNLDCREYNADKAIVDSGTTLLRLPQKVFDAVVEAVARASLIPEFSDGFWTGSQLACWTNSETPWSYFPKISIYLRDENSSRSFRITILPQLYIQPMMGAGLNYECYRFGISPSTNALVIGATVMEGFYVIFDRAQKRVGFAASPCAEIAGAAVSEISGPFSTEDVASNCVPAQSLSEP
# Method: Vi/Vo depicts the ratio of initial cleavage velocities of the substrate FS-2 (Ermolieff, et al., Biochemistry […]:12450-12456 (2000)) by memapsin 1 or memapsin 2 in the absence (Vo) or presence (Vi) of a compound of the invention. […] The Vi/Vo values depicted in Table 1 were determined at conditions under which the enzyme and inhibitor concentrations were equal (e.g., about 80 nM, 100 nM).
# The relationship of Ki (independent of substrate concentration) to Kiapp is a function of substrate concentration in the assay and the Km for cleavage of the substrate by either memapsin 1 or memapsin 2 by the relationship:
# An aliquot of the inhibitor of known concentration in DMSO was diluted into 1.8 ml 0.1 M NaOAc, pH 4.0. DMSO and added to a final concentration of 10% (v/v), and memapsin 2 (final concentration of 80 nM), followed by a 20 minute equilibration at 37° C. Compounds were evaluated for the ability to inhibit memapsin 1 and memapsin 2 at concentrations between about 10 nM and about 10 μm of inhibitor.
# The relationship of Ki (independent of substrate concentration) to Kiapp is a function of substrate concentration in the assay and the Km for cleavage of the substrate by either memapsin 1 or memapsin 2 by the relationship: […]
# [1] = memapsin 2, apparent Ki in presence of substrate FS-2, read-out: Ki app
# [2] = memapsin 2, independent of substrate, converted from Ki apparent, read-out: Ki
# [3] = memapsin 2, apparent Ki in presence of substrate FS-2
# [4] = memapsin 2, independent of substrate, converted from Ki apparent
SMILES,Vi/Vo (memapsin 2),Ki (memapsin 2; [1]) [µM],Ki (memapsin 2; [2]) [µM],further results
CSCC[C@H](NC(=O)OCCn1nc(C(C)C)cc1C(C)C)C(=O)N[C@@H](CC(C)C)[C@@H](O)C[C@@H](C)C(=O)N[C@H](C(=O)NCC(C)C)C(C)C [MMI-180],0.74,,,% Inhibition Mep2 (memapsin 2): 26%; % Inh (M1/M2) (memapsin 2): 0; % Inhibition Mep1 (memapsin 1): 0%
CSCC[C@H](NC(=O)[C@@H](NC(=O)OC(C)(C)C)C(C)C)C(=O)N[C@@H](CC(C)C)[C@@H](O)C[C@@H](CO)C(=O)N[C@H](C(=O)NCc1ccccc1)C(C)C [MMI-078],0.63,,,% Inhibition Mep2 (memapsin 2; listed as 78): 37%; % Inh (M1/M2) (memapsin 2; listed as 78): 0.76; % Inhibition Mep1 (memapsin 1; listed as 78): 28%
CSCC[C@H](NC(=O)OCCn1nc(C)cc1C)C(=O)N[C@@H](CC(C)C)[C@@H](O)C[C@@H](C)C(=O)N[C@@H](CC(C)C)C(=O)NCC(C)C [MMI-176],1,0.111,0.0691,% Inhibition Mep2 (memapsin 2): 47%; % Inh (M1/M2) (memapsin 2): 0; % Inhibition Mep1 (memapsin 1): 0%
CC(C)C[C@H](NC(=O)[C@H](CS(C)(=O)=O)NC(=O)[C@@H](NC(=O)OC(C)(C)C)C(C)C)[C@@H](O)C[C@@H](C)C(=O)N[C@H](C(=O)NCc1ccccc1)C(C)C [MMI-026],,0.016,0.00997,"Ki (memapsin 2; Table 9, read-out: Ki apparent Mep2): 0.0159 µM; Ki (memapsin 1; Table 9, read-out: Ki apparent Mep1): 44.7 nM"
CSCC[C@H](NC(=O)[C@H](CC(C)C)NC(=O)OC(C)(C)C)C(=O)N[C@@H](CC(C)C)[C@@H](O)C[C@@H](C)C(=O)N[C@H](C(=O)NCc1ccccc1)C(C)C [MMI-070],,0.0049,0.00306,
CSCC[C@H](NC(=O)[C@@H](NC(=O)OC(C)(C)C)C(C)C)C(=O)N[C@@H](CC(C)C)[C@@H](O)C[C@]1(C)CCN([C@H](C(=O)NCC(C)C)C(C)C)C1=O [MMI-187],,,,Ki app (memapsin 2; [3]): N.I.; Ki (memapsin 2; [4]): N.I.
Cc1cc(C)n(CCOC(=O)N[C@@H](CCN2CCOCC2)C(=O)N[C@@H](CC(C)C)[C@@H](O)C[C@@H](C)C(=O)N[C@@H](CC(C)C)C(=O)NC(C)C)n1 [MMI-223],,8.42,5.28,
CSCC[C@H](NC(=O)OCCn1nc(C)c2c1CSC2)C(=O)N[C@@H](CC(C)C)[C@@H](O)C[C@@H](C)C(=O)N[C@@H](CC(C)C)C(=O)NC(C)C [MMI-221],,1.91,1.19,
CSCC[C@H](NC(=O)CCn1nc(C)cc1C)C(=O)N[C@@H](CC(C)C)[C@@H](O)C[C@@H](C)C(=O)N[C@H](C(=O)NCC(C)C)C(C)C [MMI-194],,0.0623,0.0389,
CSCC[C@H](NC(=O)OCc1ccoc1)C(=O)N[C@@H](CC(C)C)[C@@H](O)C[C@@H](C)C(=O)N[C@H](C(=O)NCc1ccccc1)C(C)C [MMI-118],0.48,0.311,0.194,
CSCC[C@H](NC(=O)[C@@H](NC(=O)OC(C)(C)C)C(C)C)C(=O)N[C@@H](CC(C)C)[C@@H](O)C[C@@H](C)C(=O)N[C@@H](CC(C)C)C(=O)NC1Cc2ccccc2C1 [MMI-066],,0.0212,0.0132,
CSCC[C@H](NC(=O)[C@H](CC(C)C)NC(=O)OC(C)(C)C)C(=O)N[C@@H](CC(C)C)[C@H](O)C[C@@H](C)C(=O)N[C@H](C(=O)NCc1ccccc1)C(C)C [MMI-113],,0.0999,0.0621,
CSCC[C@H](NC(=O)OCc1ccco1)C(=O)N[C@@H](CC(C)C)[C@@H](O)C[C@@H](C)C(=O)N[C@H](C(=O)NCc1ccccc1)C(C)C [MMI-119],0.38,,,
CSCC[C@H](NC(=O)[C@@H](NC(=O)OC(C)(C)C)C(C)C)C(=O)N[C@@H](CC(C)C)[C@@H](O)C[C@H](C(=O)N[C@@H](C)C(=O)NCc1ccccc1)C(C)C [MMI-211],,0.761,0.476,
CSC[C@H](NC(=O)OC(C)(C)C)C(=O)N[C@@H](CC(C)C)[C@@H](O)C[C@@H](C)C(=O)N[C@H](C(=O)NCc1ccccc1)C(C)C [MMI-023],,15.3,9.55,
CSCC[C@@H](COC(=O)N[C@@H](CC(C)C)[C@@H](O)C[C@@H](C)C(=O)N[C@H](C(=O)NCc1ccccc1)C(C)C)NC(=O)[C@@H](NC(=O)OC(C)(C)C)C(C)C [MMI-114],,0.441,0.276,
CSCC[C@H](NC(=O)[C@@H](NC(=O)OC(C)(C)C)C(C)C)C(=O)N[C@@H](CC(C)C)[C@@H](O)C[C@@H](C)NC(=O)[C@@H](NC(=O)OCc1ccccc1)C(C)C [MMI-163],0.57,,,
CSCC[C@H](NC(=O)[C@@H](NC(=O)OC(C)(C)C)C(C)C)C(=O)N[C@@H](CC(C)C)[C@@H](O)C[C@@H](CC(C)C)C(=O)NC1CCN(Cc2ccccc2)CC1 [MMI-036],,,,Ki app (memapsin 2; [3]): N.I.; Ki (memapsin 2; [4]): N.I.
CSCC[C@H](NC(=O)[C@@H](NC(=O)OC(C)(C)C)C(C)C)C(=O)N[C@@H](CC(C)C)[C@@H](O)C[C@]1(C)CCN([C@@H](CC(C)C)C(=O)NCC(C)C)C1=O [MMI-191],,,,Ki app (memapsin 2; [3]): N.I.; Ki (memapsin 2; [4]): N.I.
CSCC[C@H](NC(=O)OCc1ccnn1C)C(=O)N[C@@H](CC(C)C)[C@@H](O)C[C@@H](C)C(=O)N[C@H](C(=O)NCC(C)C)C(C)C [MMI-186],,0.217,0.136,
CSCC[C@H](NC(=O)[C@@H](NC(=O)OC(C)(C)C)C(C)C)C(=O)N[C@@H](CC(C)C)[C@@H](O)C[C@@H](C)NC(=O)[C@H](NC(=O)OCc1ccccc1)C(C)C [MMI-162],0.98,,,

# Further lines, with some results ahead:
Vi/Vo (memapsin 2),Ki (memapsin 2; [1]) [µM],Ki (memapsin 2; [2]) [µM],SMILES,further results
0.32,0.00303,0.00189,CSCC[C@H](NC(=O)OCn1nc(C)cc1C)C(=O)N[C@@H](CC(C)C)[C@@H](O)C[C@@H](C)C(=O)N[C@H](C(=O)NCC(C)C)C(C)C [MMI-156],% Inhibition Mep2 (memapsin 2): 68%; % Inh (M1/M2) (memapsin 2): 0.47; % Inhibition Mep1 (memapsin 1): 32%
0.76,0.108,0.0674,CSCC[C@H](NC(=O)OCn1nc(C)cc1C)C(=O)N[C@@H](CC(C)C)[C@@H](O)C[C@@H](C)C(=O)N[C@@H](CC(C)C)C(=O)NCC(C)C [MMI-166],
,1.61,1,CC(C)C[C@H](NC(=O)[C@@H](NC(=O)[C@@H](NC(=O)OC(C)(C)C)C(C)C)[C@@H]1CCOC1)[C@@H](O)C[C@@H](C)C(=O)N[C@H](C(=O)NCc1ccccc1)C(C)C [MMI-020],
,,9660,CSCC[C@H](NC(=O)[C@@H](NC(=O)OC(C)(C)C)C(C)C)C(=O)N[C@@H](CC(C)C)[C@@H](O)CN(C)C(=O)[C@H](NC(=O)OCc1ccccc1)C(C)C [MMI-061],
0.66,,,CC(C)C[C@H](NC(=O)[C@H](CS(C)(=O)=O)NC(=O)OCc1ccncc1)[C@@H](O)C[C@@H](C)C(=O)N[C@H](C(=O)NCc1ccccc1)C(C)C [MMI-128],
,,91.2,CCC(C)[C@H](NC(=O)[C@H](C)C[C@H](O)[C@H](CC(C)C)NC(=O)[C@H](CCO)NC(=O)c1cnc2ccccc2c1)C(=O)N[C@H]1c2ccccc2C[C@H]1O (some centres unmarked) [MMI-050],
,0.0687,0.0429,CSCC[C@H](NC(=O)[C@@H](NC(=O)OC(C)(C)C)C(C)C)C(=O)N[C@@H](CC(C)C)[C@@H](O)C[C@@H](C)C(=O)N[C@@H](CC(C)C)C(=O)NCCc1c[nH]c2ccccc12 [MMI-065],
,1.53,0.956,CSCC[C@H](NC(=O)c1cccc(O)c1O)C(=O)N[C@@H](CC(C)C)[C@@H](O)C[C@@H](C)C(=O)N[C@@H](CC(C)C)C(=O)NC(C)C [MMI-200],
,49.2,30.7,CC(C)C[C@H](NC(=O)[C@H](CCS(C)(=O)=O)NC(=O)[C@@H](NC(=O)OC(C)(C)C)C(C)C)[C@@H](O)C[C@@H](C)C(=O)N[C@H](CO)C(C)C [MMI-043],
,0.288,0.18,CSCC[C@H](NC(=O)OCc1cc(C)nn1C)C(=O)N[C@@H](CC(C)C)[C@@H](O)C[C@@H](C)C(=O)N[C@H](C(=O)NCC(C)C)C(C)C [MMI-193],
,38.7,24.2,CSCC[C@H](NC(=O)[C@@H](NC(=O)OC(C)(C)C)C(C)C)C(=O)N[C@@H](CC(C)C)[C@@H](O)C[C@@H](C)C(=O)N[C@@H](C(C)C)C1CC(Cc2ccccc2)CC(=O)O1 (some centres unmarked) [MMI-140],
